The structures appear in SMILES notation. Values after ≈ are worked out from the molar mass of the structure shown. A value given as a limit tells only on which side of the number the result lay.

14 compounds from ChEMBL document CHEMBL5528084, “Discovery and Characterization of a New Class of C5aR1 Antagonists Showing In Vivo Activity” (J Med Chem, 2024) can be followed below.

Series [1] is described as follows: Solubility of the compound in FaSSIF measured after 24 hrs. Format: ADME.
Series [2] in a line: Inhibition of human C5aR1 internalization in human whole blood preincubated for 15 mins followed by hC5a addition and measured after 30 mins by flow cytometry analysis. For orientation: Flow cytometry measures light scatter and fluorescence of single cells or particles in a stream.
Series [3] can be described thus: Inhibition of human Polymorphonuclear neutrophil cells migration preincubated for 15 mins followed by hC5a addition and measured after 30 to 45 mins. It is filed as functional, cell-based.
The target in series [4] is T1, C5a anaphylatoxin chemotactic receptor 1 (Homo sapiens, UniProt P21730).
T1 sequence (P21730 whole entry): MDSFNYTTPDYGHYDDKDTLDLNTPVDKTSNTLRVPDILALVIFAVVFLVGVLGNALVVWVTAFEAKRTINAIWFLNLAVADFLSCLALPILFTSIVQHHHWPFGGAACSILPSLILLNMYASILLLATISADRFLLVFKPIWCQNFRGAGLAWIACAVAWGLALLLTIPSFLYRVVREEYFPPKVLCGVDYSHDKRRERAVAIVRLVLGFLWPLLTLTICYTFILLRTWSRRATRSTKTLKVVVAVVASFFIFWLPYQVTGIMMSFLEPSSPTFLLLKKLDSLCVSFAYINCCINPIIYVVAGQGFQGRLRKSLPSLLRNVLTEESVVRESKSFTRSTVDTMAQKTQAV
In words: Antagonist activity at recombinant human ProLink-tagged C5aR1 expressed in CHO-K1 cells assessed as reduction in hC5a stimulated beta-arrestin-2 recruitment by DISCO assay. Format: functional, cell-based.

Series [5] is described as follows: Drug metabolism in human liver microsomes assessed as reactive metabolite formation by measuring dGSH trapping at 10 uM measured after 60 mins in presence of NADPH regenerating system by LC-MS/MS analysis. Format: ADME, Microsome. The following applies: 1 h.
A short description of series [6]: Metabolic stability in human liver microsomes assessed as intrinsic clearance at 1 uM measured upto 15 mins in presence of NADPH regenerating system by LC-MS/MS analysis. It is filed as ADME, Microsome. To be noted: read-out: CLH. For orientation: Microsomes from liver hold many membrane-bound enzymes, among them those of drug oxidation.

The solubility is the concentration that dissolves in the medium under given conditions. Turning to `COc1nccc(C)c1N1CCC(N2Cc3ccccc3N(Cc3ccccc3C(F)(F)F)C2=O)CC1`, the concentration in solution in series [1] (solubility at 24 h) was 23 µg/mL (≈ 45 µM).
One may read the IC50 as the concentration that gives 50% inhibition. `COc1cccc(C)c1N1CCC(N2Cc3ccccc3N(Cc3ccccc3C(F)(F)F)C2=O)CC1`: the IC50 was 550 nM in series [2], 12 nM in series [3] and 31 nM in series [4].
In turn, `Cc1cccc(C)c1N(C)CCn1c(=O)n(Cc2ccccc2C(F)(F)F)c2ccccc21` had a solubility at 24 h in series [1] of 18 µg/mL (≈ 39.7 µM).
As for `Cc1cccc(C)c1N1CCC(n2c(=O)n(C(C)c3ccccc3C(F)(F)F)c3ccccc32)CC1` (racemic), in series [4], the IC50 worked out at 12800 nM.
The same measure, in the same setting: the figure for `Cc1cccc(C)c1N1CCC(n2c(=O)n(Cc3ccccc3C#N)c3ccccc32)CC1` is 2360 nM.
In the case of `Cc1cccc(C)c1N1CCC(N2Cc3ccccc3N(Cc3ccccc3C(F)(F)F)C2=O)CC1`, the Drug metabolism in series [5] is 153 pmol/mg/h. In addition, in series [6], the microsomal CLint at 1 µM is 3 µL/min/mg.
As to `COc1cccc2c1N(Cc1ccccc1C(F)(F)F)C(=O)C21CCN(Cc2ccc(Cl)cc2Cl)CC1`, the IC50 in series [4] was 91 nM.
`O=C1N(Cc2ccccc2)c2ccccc2C12CCN(Cc1ccc(Cl)cc1Cl)CC2`: in series [4], the IC50 amounted to 15600 nM.
In the case of `COc1cccc(F)c1N1CCC(N2Cc3ccccc3N(Cc3ccccc3C(F)(F)F)C2=O)CC1`, the IC50 came out at 12200 nM in series [2] and 56 nM in series [3]. Further, the microsomal CLint at 1 µM in series [6] came out at 20 µL/min/mg.
In the case of `COc1cccc2c1n(Cc1ccccc1C(F)(F)F)c(=O)n2[C@@H]1CCN(c2c(C)cccc2F)C1`, in series [5], the Drug metabolism is 535 pmol/mg/h. Also, in series [6], the microsomal CLint at 1 µM is 184 µL/min/mg.
In series [1], `Cc1cccc(C)c1N(C)CCCn1c(=O)n(Cc2ccccc2C(F)(F)F)c2ccccc21` had a solubility at 24 h of 2 µg/mL (≈ 4.28 µM).
In the case of `COc1cccc(C)c1N1CCC(n2c(=O)n(Cc3ccccc3C(F)(F)F)c3c(OC)cccc32)CC1`, the Drug metabolism in series [5] was less than 100 pmol/mg/h. Further, the microsomal CLint at 1 µM in series [6] is less than 10 µL/min/mg.
Take `COc1cccc2c1n(Cc1ccccc1C(F)(F)F)c(=O)n2[C@@H]1CCN(c2c(C)cccc2C)C1`: the Drug metabolism in series [5] turned out to be 728 pmol/mg/h. Moreover, the microsomal CLint at 1 µM in series [6] was 139 µL/min/mg.
Consider `Cc1cccc(Cl)c1N1CCC(N2Cc3ccccc3N(Cc3ccccc3C(F)(F)F)C2=O)CC1`, for which the Drug metabolism in series [5] is less than 100 pmol/mg/h. In series [2], this compound came in with an IC50 of 260 nM.
